Data published in patent publication US8030511B2, “Method for the manufacture of therapeutic compounds and compositions, compounds and compositions produced therewith, and their use” (priority 2006, dated 2011).

Legend:
[1] = HPLC of commercial organic nitrites diluted in deoxygenated water versus NO-saturated water; assay type: physicochemical; details: for size of HPLC peak (UV max 225 nm), dilution in de-aerated NO saturated solutions: Novapak C8 or CN column
Protocol: Analysis of reaction mixtures and commercial organic nitrites and nitrates was made by high performance liquid chromatography (HPLC) using reverse phase chromatography on C8, C18 or CN columns (Waters Inc. NOVAPAK™ 4 μm particle size 8×100 mm radial compression columns) by means of two LDC Constametric pumps delivering a constant total flow of 1 ml per min, controlled by a computerized gradient control system generating a linear gradient of 0-100% methanol (elution solvent B) in 33 min, starting 1 min after injecting sample in the aqueous initial elution solvent (solvent A) which contained 5 mM ammonium formiate at pH 6. Separation of eluted compounds was determined by an LDC Spectromonitor variable UV monitor set at 210 nm, followed by a Pharmacia Wavescan wavelength scanning detector producing UV scans between 190 and 370 nm at 4 s intervals which were stored on a computer and analyzed after each HPLC run. The output from the LDC Spectromonitor was continuously recorded on a strip chart recorder.
HPLC: On all three Novapak columns and on the Thermo column a single peak of product, from the reaction between propanol and NO gas, eluted at a gradient concentration of 70-80% methanol. In the NOVAPAK C18 system this corresponded to an elution time of approximately 28 min (FIG. 12, panel C). […] When a standard sample of propyl nitrite (Karl Industries Inc., Aurora, Ohio, USA) diluted in a gas-type cylinder in deoxygenated (10 min He purging) water at 1:1000 was injected, a small peak at 28 min was obtained (FIG. 12, panel A), having an identical UV absorbance max at 225 nm. […] Similar results were obtained on the C8 and CN columns, a single retained peak was obtained from the reaction mixture consisting of propanol and NO, although at somewhat shorter retention times, compared with the C18 system.
Commercial samples of ethyl nitrite, butyl nitrite, and isobutyl nitrite (Sigma-Aldrich) were diluted anaerobically as above and injected onto the HPLC system, using either the Novapak C8 or CN column. Peaks with UV absorbance maxima of approximately 225 nm were obtained in all the samples, but at different retention times corresponding to the expected differences judged from the lipophilic chain length of the compounds. All these peaks were larger if the dilution of the organonitrite had been done in de-aerated NO saturated solutions. The respective peaks with UV max at 225 nm coincided with single similar peaks obtained by treating the corresponding alcohol (ethanol, butanol, isobutanol) with NO gas. This was taken as evidence that the corresponding organic mononitrite had formed.

[2] = Cederqvist et al., 1994; cited from earlier work
venous gas embolism = test: Treatment of venous gas embolism in an animal with inhibited NO production; assay type: in vivo
Description: The beneficial effects may be induction of vasodilation in the pulmonary vasculature, inhibition of aggregation of trombocytes and/or minor vasodilation in the whole or parts of the systemic circulation, for example in the coronary circulation.

[3] = Intravenous infusion of NO dissolved in liquid medium in L-NAME pre-treated rabbit; assay type: in vivo
Protocol: Experiments were approved by the local ethics committee on animal experimentation. A male New Zealand white rabbit was anesthetised, prepared and examined as in the protocol presented in Example 2. The rabbit was pre-treated with L-NAME (30 mg kg^−1) and received one infusion with NO-gas dissolved in normal saline and one with NO-gas dissolved in lipid emulsion ([…]®, Fresenius Kabi) through the catheter in the jugular vein without carrier flow. The infusion rate was for both liquids 0.5 ml kg^−1 min^−1. There was a recovery period between the two infusions for about 200 min.
The infusion liquids were created the same way. First the liquid was de-aerated for 20 min, in a gas-tight glass chamber with a rubber membrane with an inert gas; in this case helium gas, but nitrogen, argon etc could also be used. After this no oxygen were allowed to enter the liquid throughout the following procedure. The liquid was then purged with pure NO of a few minutes. The liquid was then collected through the rubber membrane in a gas-tight syringe with needle and from this syringe infused by means of syringe pump (864 Syringe Pump, Univentor LTD., Zejtun, Malta) in the jugular vein catheter.

[4] = Verification of NO donating capacity (1% sodium iodide in hot acetic acid, chemiluminescence); assay type: physicochemical
Description: Samples of eluents from the HPLC system were collected and analyzed for NO/nitrite content by injection into a reaction vessel containing 1% sodium iodide in hot acetic acid. Released nitric oxide was purged into a chemiluminescence analyzer system optimized for detection of nitric oxide by chemiluminescence reaction with ozone and determination of NO+ozone-generated excited NO2 product through counting of emitted photons.

[5] = before 30 mg kg^−1 throughout 10 min

**Q.** What does the source list for `CCCCON=O` [butyl nitrite]?
**A.** size of HPLC peak (UV max 225 nm), dilution in de-aerated NO saturated solutions [1]: larger; generation of NO in vivo [2]: generate NO

**Q.** With `CCCON=O` [propyl nitrite] as the compound, how does the “size of 28 min HPLC peak, dilution in water saturated with NO gas vs deoxygenated water” value ([1]; dilution 1:1000, Novapak C18) read?
**A.** 5-10 times

**Q.** Which results are given for `CCON=O` [ethyl nitrite]?
**A.** size of HPLC peak (UV max 225 nm), dilution in de-aerated NO saturated solutions [1]: larger; generation of NO in vivo [2]: generate NO

**Q.** Which “generation of NO in vivo” value [2] does the source give for `CC(C)CO[N+](=O)[O-]` [isobutyl nitrate] here?
**A.** generate NO

**Q.** For `[N]=O` [inhaled nitric oxide, nitric oxide], which “treatment of venous gas embolism” value (venous gas embolism) is on record?
**A.** impossible to treat

**Q.** For `COC(=O)[C@@H](N)CCCNC(=N)N[N+](=O)[O-]` [L-NAME, N^G-nitro-L-arginine methyl ester], which “exhaled nitric oxide after L-NAME infusion” value ([3]; 30 mg kg^−1 throughout 10 min) is on record?
**A.** < 1 ppb

**Q.** And the “heart rate (HR) after L-NAME infusion” value ([3]; 30 mg kg^−1 throughout 10 min)?
**A.** 258 beats min^−1

**Q.** And the “systemic mean arterial blood pressure (MAP) after L-NAME infusion” value ([3]; 30 mg kg^−1 throughout 10 min)?
**A.** 128 cmH2O

**Q.** What about the “End-tidal CO2 and the relevant blood gas parameters” value ([3]; L-NAME 30 mg kg^−1 throughout 10 min) of the same compound?
**A.** normal

**Q.** What about the “exhaled nitric oxide before L-NAME infusion” value [3, 5] of the same compound?
**A.** 19 ppb

**Q.** What about the “heart rate (HR) before L-NAME infusion” value [3, 5] of the same compound?
**A.** 274 beats min^−1

**Q.** And the “systemic mean arterial blood pressure (MAP) before L-NAME infusion” value [3, 5]?
**A.** 103 cmH2O

**Q.** With `CC(C)CCON=O` [isoamyl nitrite] as the compound, how does the “generation of NO in vivo” value [2] read?
**A.** generate NO

**Q.** Which “release of NO by mild reduction treatment” value [4] does the source give for `O=[N+]([O-])OCC(CO[N+](=O)[O-])O[N+](=O)[O-]` [Nitroglycerin, glyceryl trinitrate] here?
**A.** did not yield a release of NO

**Q.** And the “generation of NO in vivo” value [2]?
**A.** generate NO

**Q.** For `CC(C)CON=O` [isobutyl nitrite], which “size of HPLC peak (UV max 225 nm), dilution in de-aerated NO saturated solutions” value [1] is on record?
**A.** larger

**Q.** What about the “generation of NO in vivo” value [2] of the same compound?
**A.** generate NO
